From US11420958B2, “Aryl and heteroaryl substituted indole compounds” (BRISTOL-MYERS SQUIBB COMPANY, priority 2017, dated 2022)

Tests used:
Type in all cases: cell-based
human TLR7 = human TLR7 (Homo sapiens (Human), UniProt Q9NYK1); test: TLR7 inhibition reporter assay (HEK-Blue, SEAP); conditions: HEK-Blue cells overexpressing human TLR7, gardiquimod 7.5 μM stimulation
Method in brief: (§1)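 Cells are treated with compound over a 0.05 nM–50 μM final range for 30 min at room temperature before agonist addition: gardiquimod at 7.5 μM for TLR7, R848 at 15.9 μM for TLR8, ODN2006 at 5 nM for TLR9. SEAP is measured after 22 h at 37 °C.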

human TLR9 = human TLR9 (Homo sapiens (Human), UniProt Q9NR96); test: TLR9 inhibition reporter assay (HEK-Blue, SEAP); conditions: HEK-Blue cells overexpressing human TLR9, ODN2006 5 nM stimulation
human TLR9, sequence (Q9NR96 26-1032): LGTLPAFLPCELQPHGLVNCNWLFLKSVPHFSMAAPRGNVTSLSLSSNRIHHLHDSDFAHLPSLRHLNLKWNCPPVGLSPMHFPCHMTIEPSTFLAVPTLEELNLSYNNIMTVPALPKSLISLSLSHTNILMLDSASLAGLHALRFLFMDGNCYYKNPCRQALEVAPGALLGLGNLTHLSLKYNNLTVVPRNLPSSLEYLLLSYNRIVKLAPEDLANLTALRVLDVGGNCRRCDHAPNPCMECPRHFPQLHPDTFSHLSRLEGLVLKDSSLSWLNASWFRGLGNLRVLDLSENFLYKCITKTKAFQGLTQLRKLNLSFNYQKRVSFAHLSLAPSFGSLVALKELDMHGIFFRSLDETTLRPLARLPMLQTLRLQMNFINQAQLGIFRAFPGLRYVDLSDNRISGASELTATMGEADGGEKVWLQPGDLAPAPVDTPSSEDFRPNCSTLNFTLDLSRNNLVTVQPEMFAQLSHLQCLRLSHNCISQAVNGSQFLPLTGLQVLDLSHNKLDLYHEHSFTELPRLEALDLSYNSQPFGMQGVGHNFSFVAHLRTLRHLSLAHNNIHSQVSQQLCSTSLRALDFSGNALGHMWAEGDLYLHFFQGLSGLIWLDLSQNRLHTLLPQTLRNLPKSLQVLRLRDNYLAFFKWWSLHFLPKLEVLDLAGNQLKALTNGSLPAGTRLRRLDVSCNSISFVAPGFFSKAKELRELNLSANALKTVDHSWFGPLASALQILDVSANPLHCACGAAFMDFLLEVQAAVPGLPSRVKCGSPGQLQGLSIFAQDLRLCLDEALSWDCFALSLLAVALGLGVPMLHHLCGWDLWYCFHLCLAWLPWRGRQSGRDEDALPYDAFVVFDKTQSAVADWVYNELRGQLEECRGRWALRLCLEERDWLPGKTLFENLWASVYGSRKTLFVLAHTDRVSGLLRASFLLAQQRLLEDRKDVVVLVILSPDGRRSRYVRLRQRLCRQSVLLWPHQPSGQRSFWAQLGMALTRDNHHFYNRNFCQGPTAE
Method in brief: as §1

human TLR8 = human TLR8 (Homo sapiens (Human), UniProt Q9NR97); test: TLR8 inhibition reporter assay (HEK-Blue, SEAP); conditions: HEK-Blue cells overexpressing human TLR8, R848 15.9 μM stimulation
human TLR8, sequence (Q9NR97 27-1041): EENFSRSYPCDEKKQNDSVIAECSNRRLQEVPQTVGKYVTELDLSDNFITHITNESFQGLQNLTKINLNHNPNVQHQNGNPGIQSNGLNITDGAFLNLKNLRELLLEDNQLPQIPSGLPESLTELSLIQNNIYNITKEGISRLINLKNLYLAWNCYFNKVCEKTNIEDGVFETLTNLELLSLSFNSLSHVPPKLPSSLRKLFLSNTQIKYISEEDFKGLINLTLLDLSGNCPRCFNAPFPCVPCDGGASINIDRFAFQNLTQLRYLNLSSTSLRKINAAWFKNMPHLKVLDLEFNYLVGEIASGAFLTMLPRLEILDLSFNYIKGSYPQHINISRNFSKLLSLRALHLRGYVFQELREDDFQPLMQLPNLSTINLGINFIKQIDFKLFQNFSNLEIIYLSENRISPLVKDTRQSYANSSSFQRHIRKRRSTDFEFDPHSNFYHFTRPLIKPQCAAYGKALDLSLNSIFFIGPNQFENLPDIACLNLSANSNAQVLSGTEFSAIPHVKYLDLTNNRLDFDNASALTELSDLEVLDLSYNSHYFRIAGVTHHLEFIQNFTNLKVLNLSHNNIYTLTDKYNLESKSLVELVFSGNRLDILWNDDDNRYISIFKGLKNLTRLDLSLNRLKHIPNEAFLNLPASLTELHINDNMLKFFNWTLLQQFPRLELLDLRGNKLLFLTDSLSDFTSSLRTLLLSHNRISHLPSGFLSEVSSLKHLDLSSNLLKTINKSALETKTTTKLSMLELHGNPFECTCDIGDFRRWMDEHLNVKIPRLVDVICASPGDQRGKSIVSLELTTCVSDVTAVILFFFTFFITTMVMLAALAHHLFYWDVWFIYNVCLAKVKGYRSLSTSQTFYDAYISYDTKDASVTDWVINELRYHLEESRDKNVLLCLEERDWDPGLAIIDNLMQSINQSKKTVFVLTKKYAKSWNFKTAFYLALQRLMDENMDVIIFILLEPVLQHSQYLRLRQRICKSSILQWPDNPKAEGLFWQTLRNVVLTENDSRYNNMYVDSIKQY
Method in brief: as §1

human TLR7, sequence (Q9NYK1 27-1049): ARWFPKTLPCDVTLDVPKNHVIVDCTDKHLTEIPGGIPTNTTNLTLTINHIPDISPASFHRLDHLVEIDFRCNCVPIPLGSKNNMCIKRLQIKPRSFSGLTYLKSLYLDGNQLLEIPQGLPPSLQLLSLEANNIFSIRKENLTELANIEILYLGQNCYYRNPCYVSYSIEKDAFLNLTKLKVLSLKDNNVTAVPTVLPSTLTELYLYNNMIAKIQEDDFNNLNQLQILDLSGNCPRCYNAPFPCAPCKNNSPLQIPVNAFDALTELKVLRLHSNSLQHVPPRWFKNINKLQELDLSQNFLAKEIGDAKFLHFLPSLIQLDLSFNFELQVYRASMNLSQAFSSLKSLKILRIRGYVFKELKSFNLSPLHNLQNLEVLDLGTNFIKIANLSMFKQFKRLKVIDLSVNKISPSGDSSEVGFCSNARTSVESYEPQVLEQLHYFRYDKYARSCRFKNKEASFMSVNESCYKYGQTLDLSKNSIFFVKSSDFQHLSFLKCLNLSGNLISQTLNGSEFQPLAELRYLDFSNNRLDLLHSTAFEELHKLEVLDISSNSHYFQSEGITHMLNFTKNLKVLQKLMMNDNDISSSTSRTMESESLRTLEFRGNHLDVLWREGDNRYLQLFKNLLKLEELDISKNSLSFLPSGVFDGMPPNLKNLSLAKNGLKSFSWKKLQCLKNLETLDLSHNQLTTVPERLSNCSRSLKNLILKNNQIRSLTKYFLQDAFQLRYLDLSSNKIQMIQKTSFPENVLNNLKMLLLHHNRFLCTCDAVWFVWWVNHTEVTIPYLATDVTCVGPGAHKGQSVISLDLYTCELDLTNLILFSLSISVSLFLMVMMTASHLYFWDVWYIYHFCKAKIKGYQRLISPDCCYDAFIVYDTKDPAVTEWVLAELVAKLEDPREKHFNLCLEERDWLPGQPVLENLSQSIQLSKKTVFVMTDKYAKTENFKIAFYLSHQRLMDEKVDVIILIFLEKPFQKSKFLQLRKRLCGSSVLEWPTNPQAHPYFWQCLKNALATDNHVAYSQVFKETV

IC50 (human TLR7) [nM]	IC50 (human TLR9) [nM]	IC50 (human TLR8) [nM]	SMILES
919	> 50000	218	CC(C)c1c(-c2ccnc3[nH]ncc23)[nH]c2ccc(-c3ccc4[nH]c(=O)cc(O)c4c3)cc12 [Example 394, 4-hydroxy-6-(3-isopropyl-2-(1H-pyrazolo[3,4-b]pyridin-4-yl)-1H-indol-5-yl)quinolin-2(1H)-one]
149	14000	39	Cc1cc(-c2[nH]c3ccc(-c4cccc(C(=O)NC5CCN(C(C)C)CC5)c4)cc3c2C(C)C)ccn1 [Example 16, 3-(3-isopropyl-2-(2-methylpyridin-4-yl)-1H-indol-5-yl)-N-(1-isopropylpiperidin-4-yl)benzamide]
6.6	592	6.9	Cc1cc(-c2[nH]c3ccc(-c4cn5cc(C)nc5cc4C)cc3c2C(C)C)cc(C)n1 [Example 347, 6-(2-(2,6-dimethylpyridin-4-yl)-3-isopropyl-1H-indol-5-yl)-2,7-dimethylimidazo[1,2-a]pyridine]
636	> 50000	349	COc1ccc(-c2[nH]c3ccc(-c4ccc(OC5CCN(CC(C)C)CC5)cc4)cc3c2C(C)C)cc1OC [Example 388, 2-(3,4-dimethoxyphenyl)-5-(4-((1-isobutylpiperidin-4-yl)oxy)phenyl)-3-isopropyl-1H-indole]
36	633	2.4	Cc1cc(-c2[nH]c3ccc(-c4nnc(C5CCCN(C(C)C)C5)o4)cc3c2C(C)C)ccn1 (stereo not drawn) [Example 312, 2-(3-isopropyl-2-(2-methylpyridin-4-yl)-1H-indol-5-yl)-5-(1-isopropylpiperidin-3-yl)-1,3,4-oxadiazole]
338	2360	126	COc1ccc(-c2[nH]c3ccc(-c4ccc(OC5CCN(C(C)C)CC5)cc4)cc3c2C(C)C)cc1OC [Example 389, 2-(3,4-dimethoxyphenyl)-3-isopropyl-5-(4-((1-isopropylpiperidin-4-yl)oxy)phenyl)-1H-indole]
917	> 50000	734	C#CCNCc1nnc(-c2ccc3[nH]c(-c4ccc(OC)c(OC)c4)c(C(C)C)c3c2)o1 [Example 110, N-((5-(2-(3,4-dimethoxyphenyl)-3-isopropyl-1H-indol-5-yl)-1,3,4-oxadiazol-2-yl)methyl)prop-2-yn-1-amine]
181	13100	222	COc1ccc(-c2[nH]c3ccc(-c4nnc(C(=O)N(C)CCc5ccccn5)o4)cc3c2C(C)C)cc1OC [Example 94, 5-(2-(3,4-dimethoxyphenyl)-3-isopropyl-1H-indol-5-yl)-N-methyl-N-(2-(pyridin-2-yl)ethyl)-1,3,4-oxadiazole-2-carboxamide]
60	3460	14	COc1ccc(-c2[nH]c3ccc(-c4nnc(C5CCN(CC(=O)N(C)C)CC5)[nH]4)cc3c2C(C)C)cc1OC [Example 129, 2-(4-(5-(2-(3,4-dimethoxyphenyl)-3-isopropyl-1H-indol-5-yl)-4H-1,2,4-triazol-3-yl)piperidin-1-yl)-N,N-dimethylacetamide]
587	32600	94	COc1ccc(-c2[nH]c3ccc(-c4cccc(C(=O)NCC(N)=O)c4)cc3c2CC(F)(F)F)cc1OC [Example 28, N-(2-amino-2-oxoethyl)-3-(2-(3,4-dimethoxyphenyl)-3-(2,2,2-trifluoroethyl)-1H-indol-5-yl)benzamide]
11	495	1.3	CNCCNc1ccc(-c2ccc3[nH]c(-c4ccnc(C)c4)c(C(C)C)c3c2)cn1 [Example 202, N1-(5-(3-isopropyl-2-(2-methylpyridin-4-yl)-1H-indol-5-yl)pyridin-2-yl)-N2-methylethane-1,2-diamine]
65	1250	7.5	Cc1cc(-c2[nH]c3ccc(-c4nnc(CN5CCN(C)CC5)o4)cc3c2C(C)C)ccn1 [Example 79, 2-(3-isopropyl-2-(2-methylpyridin-4-yl)-1H-indol-5-yl)-5-((4-methylpiperazin-1-yl)methyl)-1,3,4-oxadiazole]
549	5660	9.8	CC(C)c1c(-c2ccnc3[nH]ncc23)[nH]c2ccc(-c3nnc(C4CCN(CC(=O)N(C)C)CC4)o3)cc12 [Example 87, 2-(4-(5-(3-isopropyl-2-(1H-pyrazolo[3,4-b]pyridin-4-yl)-1H-indol-5-yl)-1,3,4-oxadiazol-2-yl)piperidin-1-yl)-N,N-dimethylacetamide]
17	399	6.6	Cc1cc(-c2[nH]c3ccc(-c4nc(C(=O)NCC5CCCCN5)co4)cc3c2C(C)C)cc(C)n1 (stereo not drawn) [Example 287, 2-(2-(2,6-dimethylpyridin-4-yl)-3-isopropyl-1H-indol-5-yl)-N-(piperidin-2-ylmethyl)oxazole-4-carboxamide]
1000	32900	73	COc1ccc(-c2[nH]c3ccc(-c4cccc(C(=O)NCCNC(C)=O)c4)cc3c2CC(F)(F)F)cc1OC [Example 26, N-(2-acetamidoethyl)-3-(2-(3,4-dimethoxyphenyl)-3-(2,2,2-trifluoroethyl)-1H-indol-5-yl)benzamide]
5.4	304	1.5	Cc1cc(-c2[nH]c3ccc(-c4nnc([C@@H]5CCCN(C(C)C)C5)o4)cc3c2C(C)C)cc(C)n1 [Example 245, (R)-2-(2-(2,6-dimethylpyridin-4-yl)-3-isopropyl-1H-indol-5-yl)-5-(1-isopropylpiperidin-3-yl)-1,3,4-oxadiazole]
1380	> 50000	174	CC(C)c1c(-c2ccnc3[nH]ncc23)[nH]c2ccc(-c3nnc(CN4CCC[C@H]4C(N)=O)o3)cc12 [Example 158, (S)-1-((5-(3-isopropyl-2-(1H-pyrazolo[3,4-b]pyridin-4-yl)-1H-indol-5-yl)-1,3,4-oxadiazol-2-yl)methyl)pyrrolidine-2-carboxamide]
692	2950	71	COc1ccc(-c2[nH]c3ccc(-c4ccc(N5CCCN(CCO)CC5)cc4)cc3c2C(C)C)cc1OC [Example 379, 2-(4-(4-(2-(3,4-dimethoxyphenyl)-3-isopropyl-1H-indol-5-yl)phenyl)-1,4-diazepan-1-yl)ethan-1-ol]
28	523	2.8	Cc1cc(-c2[nH]c3ccc(-c4nnc([C@@H]5CCNC5)o4)cc3c2C(C)C)ccn1 [Example 139, (R)-2-(3-isopropyl-2-(2-methylpyridin-4-yl)-1H-indol-5-yl)-5-(pyrrolidin-3-yl)-1,3,4-oxadiazole]
124	45200	54	COc1cc(-c2ccc3[nH]c(-c4ccnc5[nH]ncc45)c(C(C)C)c3c2)cnc1OC [Example 434, 4-(5-(5,6-dimethoxypyridin-3-yl)-3-isopropyl-1H-indol-2-yl)-1H-pyrazolo[3,4-b]pyridine]
200	2320	21	COc1ccc(-c2[nH]c3ccc(-c4ccc(NC5CCCNC5)cc4)cc3c2C(C)C)cc1OC (stereo not drawn) [Example 402, N-(4-(2-(3,4-dimethoxyphenyl)-3-isopropyl-1H-indol-5-yl)phenyl)piperidin-3-amine]
31	1470	10	COc1ccc(-c2[nH]c3ccc(-c4nnc([C@H]5CCCNC5)o4)cc3c2CC(F)(F)F)cc1OC [compound 57]
799	1870	45	Cc1cc(-c2[nH]c3ccc(-c4nnc([C@H]5Cc6ccccc6CN5)o4)cc3c2C(C)C)ccn1 [Example 72, (R)-2-(3-isopropyl-2-(2-methylpyridin-4-yl)-1H-indol-5-yl)-5-(1,2,3,4-tetrahydroisoquinolin-3-yl)-1,3,4-oxadiazole]
561	26300	109	COc1ccc(-c2[nH]c3ccc(-c4nnc(C(=O)N5CCN(C(C)=O)CC5)o4)cc3c2C(C)C)cc1OC [Example 92, 1-(4-(5-(2-(3,4-dimethoxyphenyl)-3-isopropyl-1H-indol-5-yl)-1,3,4-oxadiazole-2-carbonyl)piperazin-1-yl)ethan-1-one]
120	3930	23	CC(C)c1c(-c2ccnc(N)c2)[nH]c2ccc(-c3nc(C(=O)NC4CCN(C(C)C)CC4)co3)cc12 [Example 160, 2-(2-(2-aminopyridin-4-yl)-3-isopropyl-1H-indol-5-yl)-N-(1-isopropylpiperidin-4-yl)oxazole-4-carboxamide]
320	31600	41	Cc1cc(-c2[nH]c3ccc(-c4nnc([C@@H]5CSCN5)o4)cc3c2C(C)C)ccn1 [Example 68, (R)-2-(3-isopropyl-2-(2-methylpyridin-4-yl)-1H-indol-5-yl)-5-(thiazolidin-4-yl)-1,3,4-oxadiazole]

SMILES	IC50 (human TLR7) [nM]	IC50 (human TLR9) [nM]	IC50 (human TLR8) [nM]
Cc1cc(-c2[nH]c3ccc(-c4nnc(C5CN6CCC5CC6)o4)cc3c2C(C)C)ccn1 (stereo not drawn) [Example 213, 2-(3-isopropyl-2-(2-methylpyridin-4-yl)-1H-indol-5-yl)-5-(quinuclidin-3-yl)-1,3,4-oxadiazole]	47	655	3.3
COc1ccc(-c2[nH]c3ccc(-c4ccc(C5=CCNCC5)cc4)cc3c2C)cc1OC [Example 408, 2-(3,4-dimethoxyphenyl)-3-methyl-5-(4-(1,2,3,6-tetrahydropyridin-4-yl)phenyl)-1H-indole]	8620	729	> 50000
